The values below come from patent publication US10544130B2, “Metallo-beta-lactamase inhibitors” (priority 2015, dated 2020).

Data set [1] deals with Escherichia coli expressing NDM-1 (CLB30005, CLB30016). The data set is classed as cell-based. As to conditions: with imipenem 1 μg/ml; 95% inhibition of bacterial growth. The method in brief: (§1)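 Clinical strains were grown overnight at 35 °C on blood agar, adjusted to set OD600 in saline and diluted 1:100 into 1.1× CAMHB. Inhibitor was tested with and without imipenem at 1 μg/ml. After 22–24 h at 35 °C, absorbance was read to give synergistic concentration.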

Data set [2] deals with Klebsiella pneumoniae expressing VIM-1 (IHMA599644). The data set is classed as cell-based. As to conditions: with imipenem 1 μg/ml; 95% inhibition of bacterial growth. The method in brief: as §1
Data set [3] has as its system Serratia marcescens expressing IMP-1 (CL5741). The class given is cell-based. To be noted: with imipenem 1 μg/ml; 95% inhibition of bacterial growth. The method in brief:
as §1

Data set [4] deals with Pseudomonas aeruginosa PAO1 MB9798 (efflux+, IMP-1). To be noted: ratio MITC95 PA 9798/MITC95 PA 9799; imipenem at 2 μg/mL. The method in brief:
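Isogenic PAO1 pair (efflux+ MB9798, efflux− MB9799, both IMP-1) tested by microbroth MIC with fixed imipenem and/or ceftazidime, usually at CLSI breakpoint, plus fixed class A/C inhibitor against AmpC. MBL inhibitor titrated; concentration restoring susceptibility recorded and fold difference between strains taken as efflux extent.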

Turning to `CN([C@H]1CCNC1)S(=O)(=O)c1ccc(-c2cccc3[nH]c(N)nc23)c(-c2nn[nH]n2)c1S(N)(=O)=O` [Example 244, (S)-4-(2-amino-1H-benzo[d]imidazol-7-yl)-N1-methyl-N1-(pyrrolidin-3-yl)-3-(1H-tetrazol-5-yl)benzene-1,2-disulfonamide], the “Escherichia coli (NDM-1) MITC95” value in data set [1] was determined as 0.7813 µM. Besides, the “Klebsiella pneumoniae (VIM-1) MITC95” value in data set [2] is 1.563 µM. In addition, the “Serratia marcescens (IMP-1) MITC95” value in data set [3] came to 1.563 µM. The Efflux ratio in data set [4] amounted to 2.00.
Turning to `NCCN1CC[C@@H](NS(=O)(=O)c2ccc(-c3cccc4[nH]c(N)nc34)c(-c3nn[nH]n3)c2S(N)(=O)=O)C1` [Example 246, (R)-4-(2-amino-1H-benzo[d]imidazol-4-yl)-N1-(1-(2-aminoethyl)pyrrolidin-3-yl)-3-(2H-tetrazol-5-yl)benzene-1,2-disulfonamide], the “Escherichia coli (NDM-1) MITC95” value in data set [1] worked out at 0.7813 µM. The “Klebsiella pneumoniae (VIM-1) MITC95” value in data set [2] came out at 1.563 µM. Also, in data set [3], the “Serratia marcescens (IMP-1) MITC95” value came to 1.563 µM. The Efflux ratio in data set [4] is 2.00.
With `NCc1ncc(-c2cccc(-c3ccc(S(=O)(=O)N[C@@H]4CCNC4)c(S(N)(=O)=O)c3-c3nn[nH]n3)c2)[nH]1` [Example 278, (R)-3′-(2-(aminomethyl)-1H-imidazol-5-yl)-N4-(pyrrolidin-3-yl)-2-(2H-tetrazol-5-yl)-[1,1′-biphenyl]-3,4-disulfonamide], in data set [1], the “Escherichia coli (NDM-1) MITC95” value came out at 0.7813 µM. For the same molecule, in data set [2], the “Klebsiella pneumoniae (VIM-1) MITC95” value worked out at 0.7813 µM. Also, the “Serratia marcescens (IMP-1) MITC95” value in data set [3] is 0.7813 µM. Besides, in data set [4], the Efflux ratio is 1.00.
In the case of `NCCn1nc2cccc(-c3ccc(S(=O)(=O)N[C@@H]4CCNC4)c(S(N)(=O)=O)c3-c3nn[nH]n3)c2n1` [Example 279, (R)-4-(2-(2-aminoethyl)-2H-benzo[d][1,2,3]triazol-4-yl)-N1-(pyrrolidin-3-yl)-3-(2H-tetrazol-5-yl)benzene-1,2-disulfonamide], the “Escherichia coli (NDM-1) MITC95” value in data set [1] is 0.7813 µM. Further, the “Klebsiella pneumoniae (VIM-1) MITC95” value in data set [2] stood at 0.7813 µM. The “Serratia marcescens (IMP-1) MITC95” value in data set [3] turned out to be 0.7813 µM. In addition, in data set [4], the Efflux ratio came out at 1.00.
In the case of `Cn1nc2cccc(-c3ccc(S(=O)(=O)N[C@@H]4CCNC4)c(S(N)(=O)=O)c3-c3nn[nH]n3)c2n1` [Example 281, (R)-4-(2-methyl-2H-benzo[d][1,2,3]triazol-4-yl)-N1-(pyrrolidin-3-yl)-3-(2H-tetrazol-5-yl)benzene-1,2-disulfonamide], the “Escherichia coli (NDM-1) MITC95” value in data set [1] stood at 1.563 µM. Also, the “Klebsiella pneumoniae (VIM-1) MITC95” value in data set [2] is 3.125 µM. In addition, the “Serratia marcescens (IMP-1) MITC95” value in data set [3] was determined as 1.563 µM. In addition, in data set [4], the Efflux ratio stood at 2.00.
Consider `Nc1cc(-c2ccc(S(=O)(=O)N[C@@H]3CCNC3)c(S(N)(=O)=O)c2-c2nn[nH]n2)ccn1` [Example 288, (R)-4-(2-aminopyridin-4-yl)-N1-(pyrrolidin-3-yl)-3-(2H-tetrazol-5-yl)benzene-1,2-disulfonamide], for which the “Escherichia coli (NDM-1) MITC95” value in data set [1] amounted to 0.7813 µM. Moreover, the “Klebsiella pneumoniae (VIM-1) MITC95” value in data set [2] amounted to 1.563 µM. The “Serratia marcescens (IMP-1) MITC95” value in data set [3] is 1.563 µM. In data set [4], the Efflux ratio was 2.00.
With `Cc1ccc(-c2ccc(S(=O)(=O)NCCN)c(S(N)(=O)=O)c2-c2nn[nH]n2)c2nc(N)[nH]c12` [Example 329, 4-(2-Amino-7-methyl-1H-benzo[d]imidazol-4-yl)-N1-(2-aminoethyl)-3-(2H-tetrazol-5-yl)benzene-1,2-disulfonamide], the “Escherichia coli (NDM-1) MITC95” value in data set [1] was found to be 1.563 µM. Moreover, the “Klebsiella pneumoniae (VIM-1) MITC95” value in data set [2] came to 1.563 µM. In addition, the “Serratia marcescens (IMP-1) MITC95” value in data set [3] turned out to be 1.563 µM. Moreover, in data set [4], the Efflux ratio worked out at 2.00.
As to `NCCNS(=O)(=O)c1ccc(-c2cccc3[nH]c([C@H](N)CN)nc23)c(-c2nn[nH]n2)c1S(N)(=O)=O` [Example 335, (R)—N1-(2-aminoethyl)-4-(2-(1,2-diaminoethyl)-1H-benzo[d]imidazole-4-yl)-3-(2H-tetrazol-5-yl)benzene-1,2-disulfonamide], the “Escherichia coli (NDM-1) MITC95” value in data set [1] is 1.563 µM. The “Klebsiella pneumoniae (VIM-1) MITC95” value in data set [2] stood at 3.125 µM. The “Serratia marcescens (IMP-1) MITC95” value in data set [3] came to 3.125 µM. For the same molecule, the Efflux ratio in data set [4] is 2.00.
As for `NCCNS(=O)(=O)c1ccc(-c2cccc3[nH]c([C@@H](N)CN)nc23)c(-c2nn[nH]n2)c1S(N)(=O)=O` [Example 336, (S)—N1-(2-aminoethyl)-4-(2-(1,2-diaminoethyl)-1H-benzo[d]imidazol-4-yl)-3-(2H-tetrazol-5-yl)benzene-1,2-disulfonamide], in data set [1], the “Escherichia coli (NDM-1) MITC95” value is 1.563 µM. The “Klebsiella pneumoniae (VIM-1) MITC95” value in data set [2] was 3.125 µM. Moreover, in data set [3], the “Serratia marcescens (IMP-1) MITC95” value was found to be 3.125 µM. The Efflux ratio in data set [4] is 2.00.
As for `NCCNS(=O)(=O)c1ccc(-c2cccc3[nH]c(CCN)nc23)c(-c2nn[nH]n2)c1S(N)(=O)=O` [Example 337, N1-(2-aminoethyl)-4-(2-(2-aminoethyl)-1H-benzo[d]imidazol-4-yl)-3-(2H-tetrazol-5-yl)benzene-1,2-disulfonamide], the “Escherichia coli (NDM-1) MITC95” value in data set [1] was found to be 0.7813 µM. The “Klebsiella pneumoniae (VIM-1) MITC95” value in data set [2] is 0.7813 µM. In data set [3], the “Serratia marcescens (IMP-1) MITC95” value was found to be 0.7813 µM. For the same molecule, the Efflux ratio in data set [4] came to 2.00.
With `NCCNS(=O)(=O)c1ccc(C2=CC(N)CCC2)c(-c2nn[nH]n2)c1S(N)(=O)=O` (stereo not drawn) [Example 338, 5′-Amino-N4-(2-aminoethyl)-2-(2H-tetrazol-5-yl)-2′,3′,4′,5′-tetrahydro-[1,1′-biphenyl]-3,4-disulfonamide], the “Escherichia coli (NDM-1) MITC95” value in data set [1] was determined as 1.563 µM. Moreover, in data set [2], the “Klebsiella pneumoniae (VIM-1) MITC95” value was found to be 1.563 µM. The “Serratia marcescens (IMP-1) MITC95” value in data set [3] amounted to 1.563 µM. In data set [4], the Efflux ratio is listed as 4.00.
In the case of `NCCNS(=O)(=O)c1ccc(-c2cccc3[nH]c(CN)nc23)c(-c2nn[nH]n2)c1S(N)(=O)=O` [Example 343], the “Escherichia coli (NDM-1) MITC95” value in data set [1] was 0.7813 µM. The “Klebsiella pneumoniae (VIM-1) MITC95” value in data set [2] is 0.7813 µM. For the same molecule, the “Serratia marcescens (IMP-1) MITC95” value in data set [3] is 0.7813 µM. Further, the Efflux ratio in data set [4] amounted to 1.00.
`NCCNS(=O)(=O)c1ccc(-c2cccc(C(=O)NC[C@H](O)CN)c2)c(-c2nn[nH]n2)c1S(N)(=O)=O` [Example 346, (R)—N-(3-amino-2-hydroxypropyl)-4′-(N-(2-aminoethyl)sulfamoyl)-3′-sulfamoyl-2′-(2H-tetrazol-5-yl)-[1,1′-biphenyl]-3-carboxamide]: in data set [1], the “Escherichia coli (NDM-1) MITC95” value turned out to be 1.563 µM. Besides, in data set [2], the “Klebsiella pneumoniae (VIM-1) MITC95” value was determined as 1.563 µM. Besides, the “Serratia marcescens (IMP-1) MITC95” value in data set [3] amounted to 1.563 µM. Also, in data set [4], the Efflux ratio is given as 2.00.
Turning to `NCCNS(=O)(=O)c1ccc(-c2cccc(NC[C@@H](N)CO)c2)c(-c2nn[nH]n2)c1S(N)(=O)=O` [Example 349, (R)-3′-((2-amino-3-hydroxypropyl)amino)-N4-(2-aminoethyl)-2-(2H-tetrazol-5-yl)-[1,1′-biphenyl]-3,4-disulfonamide], in data set [1], the “Escherichia coli (NDM-1) MITC95” value was determined as 1.563 µM. In data set [2], the “Klebsiella pneumoniae (VIM-1) MITC95” value came to 1.563 µM. The “Serratia marcescens (IMP-1) MITC95” value in data set [3] was determined as 1.563 µM. Besides, the Efflux ratio in data set [4] was determined as 2.00.
`NCCNS(=O)(=O)c1ccc(-c2cccc(NC[C@H](N)CO)c2)c(-c2nn[nH]n2)c1S(N)(=O)=O` [Example 350, (S)-3′-((2-amino-3-hydroxypropyl)amino)-N4-(2-aminoethyl)-2-(2H-tetrazol-5-yl)-[1,1′-biphenyl]-3,4-disulfonamide]: the “Escherichia coli (NDM-1) MITC95” value in data set [1] was determined as 0.7813 µM. The “Klebsiella pneumoniae (VIM-1) MITC95” value in data set [2] is 0.7813 µM. In addition, the “Serratia marcescens (IMP-1) MITC95” value in data set [3] is 0.7813 µM. Further, in data set [4], the Efflux ratio is given as 1.00.
Regarding `NCCNC(=O)c1cc(-c2ccc(S(=O)(=O)NCCN)c(S(N)(=O)=O)c2-c2nn[nH]n2)ccc1N` [Example 451, 4-Amino-N-(2-aminoethyl)-4′-(N-(2-aminoethyl)sulfamoyl)-3′-sulfamoyl-2′-(2H-tetrazol-5-yl)-[1,1′-biphenyl]-3-carboxamide], the “Escherichia coli (NDM-1) MITC95” value in data set [1] worked out at 0.7813 µM. The “Klebsiella pneumoniae (VIM-1) MITC95” value in data set [2] turned out to be 0.7813 µM. Moreover, the “Serratia marcescens (IMP-1) MITC95” value in data set [3] was 0.7813 µM.
`NCCNS(=O)(=O)c1ccc(-c2cccc(NC(=O)[C@@H](N)CN)c2)c(-c2nn[nH]n2)c1S(N)(=O)=O` [Example 453, (S)-2,3-Diamino-N-(4′-(N-(2-aminoethyl)sulfamoyl)-3′-sulfamoyl-2′-(2H-tetrazol-5-yl)-[1,1′-biphenyl]-3-yl)propanamide]: in data set [1], the “Escherichia coli (NDM-1) MITC95” value is 1.563 µM. The “Klebsiella pneumoniae (VIM-1) MITC95” value in data set [2] was 3.125 µM. Further, the “Serratia marcescens (IMP-1) MITC95” value in data set [3] stood at 3.125 µM.
In the case of `NCCNc1cc(-c2ccc(S(=O)(=O)NCCN)c(S(N)(=O)=O)c2-c2nn[nH]n2)ccn1` [Example 456, N1-(2-Aminoethyl)-4-(2-((2-aminoethyl)amino)pyridin-4-yl)-3-(2H-tetrazol-5-yl)benzene-1,2-disulfonamide], the “Escherichia coli (NDM-1) MITC95” value in data set [1] worked out at 0.7813 µM. For the same molecule, the “Klebsiella pneumoniae (VIM-1) MITC95” value in data set [2] stood at 1.563 µM. In data set [3], the “Serratia marcescens (IMP-1) MITC95” value worked out at 0.7813 µM.
`NCc1nc(-c2cccc(-c3ccc(S(=O)(=O)N[C@H]4CNC[C@H]4N)c(S(N)(=O)=O)c3-c3nn[nH]n3)c2)c[nH]1` [Example 462]: the “Escherichia coli (NDM-1) MITC95” value in data set [1] is 1.563 µM. The “Klebsiella pneumoniae (VIM-1) MITC95” value in data set [2] worked out at 1.563 µM. The “Serratia marcescens (IMP-1) MITC95” value in data set [3] stood at 1.563 µM.
